In brackets after ≈: the same amount, converted by molar mass.

Experimental findings from patent publication EP0305968A2, “Compositions against protozoal diseases” (YEDA RESEARCH AND DEVELOPMENT COMPANY LIMITED, priority 1987, dated 1989) are described below.

This assay concerns Entamoeba histolytica. The assay can be described thus: Killing of Entamoeba histolytica trophozoites in culture, with particle ingestion. The class given is cell-based. Conditions: drug alone. The source says:
The particles were diol subsituted silica or aluminum- silicate particles Fig. 1), in which aldehyde groups can be formed by pretreatment with periodate that oxidizes vicinal hydroxyl groups and yields aldehyde groups. […] Schiff base was then interacted with sodium bisulfite to stabilize the bond (Fig. 2). […] One mg of dry weight silica particles contains 10⁷-10⁹ particles depending on the source.

As to `Cc1ncc([N+](=O)[O-])n1CCO` [Metronidazole], the EC95 (Entamoeba histolytica, over 24 h, read-out: concentration required to kill more than 95% of the trophozoites) fell in the range of 1 to 5 µg/mL (≈ 5.84 to 29.2 µM). Besides, the “time required to kill more than 95% of the trophozoites” value (1-5 µg/ml) is on record as “over 24 h”.
